Assays:
[1] = test system: S.marcescens in the biofilm; experiment: Antibacterial activity against cells immersed in a biofilm matrix (CFU, drop plate); assay type: cell-based
Description: (§1) To determine the effectiveness of the antibiotic against bacteria in […], bacteria were grown in Basal medium for 3 days at a temperature of 37° C. without swinging to obtain a dense biofilm [A. R Kayumov, Khakimullina E., Sharafutdinov I, Trizna E., Latypova L., Lien Thi, Margulis A., Bogachev M, Kurbangalieva A. Inhibition of biofilm formation in Bacillus subtilis by new halogenated furanoses. J. Antibiotics.—2014.—V. 68.—No 5.—P. 297-301.]. Then the biofilm was washed with a sterile 0.9% NaCl solution and fresh sterile medium was poured. Antiseptics were added to concentrations (1-16)×MBC (minimum bactericidal concentration) and incubated for 24 hours. Then the culture fluid was removed from the wells, washed once with 0.9% NaCl solution to remove non-adherent cells, and cell viability in biofilms was evaluated by counting CFU by Drop plate analysis [B. Herigstad, M Hamilton, J. Heersink How to optimize the drop plate method for enumerating bacteria. J Microbiol Methods.—2001.—V. 44.—P. 121-129]. To do this, the biofilm was mechanically removed from the surface and homogenized in 0.9% NaCl by pipetting and ultrasonic treatment. Then, serial 10-fold dilutions of the bacterial suspension in 0.9% NaCl were prepared, and 5 μI of each suspension were transferred to plates with dense nutrient medium. CFU was counted from drops containing 5-10 colonies.
(§2) The results of the study of antimicrobial activity against cells of the studied strains immersed in the biofilm matrix, in comparison with miramistin and benzalkonium chloride, are presented in FIGS. 1 and 2.

[2] = test system: K. pneumonia in the biofilm; experiment: as above; assay type: cell-based
Description: as §1, §2

Structure (SMILES): CCCCCCCCCCCC[N+](C)(C)Cc1cnc(C[N+](C)(C)CCCCCCCCCCCC)c2c1COC(CC)O2 (centres unmarked) [Compound I, 5,8-(Bis(methylene (N, N-dimethyl-N-dodecylammonium))-2-ethyl-4H-[1,3]dioxino [4,5-c]pyridiniumdichloride]
- activity in the biofilm compared with comparison antiseptics [1]: the same activity as miramistine and benzalconium chloride
- activity in the biofilm compared with comparison antiseptics [2]: the same activity as miramistine and benzalconium chloride

Source: patent publication US11014934B2, “Antiseptic drug” (AO “TATKHIMFARMPREPARATY”, priority 2017, dated 2021)
